# Laboratory results: publication PMC6358866 (International Journal of Molecular Sciences, 2019)
# Legend:
# Assay type in all cases: cell-based
# [1] = test system: Staphylococcus epidermidis ATCC 14990 biofilm; assay: Activity against biofilms formed on polystyrene 96-well plates, 24 h exposure, resazurin; details: polystyrene plate, 24 h exposure in MHB II, resazurin
# Method: (§1) Bacterial strains were obtained from the Polish Collection of Microorganisms (Polish Academy of Science, Wroclaw, Poland). […] The bacteria were cultured in a Mueller Hinton Broth II (MHB, Biocorp, Warsaw, Poland) overnight, under aerobic conditions at 37 °C. After incubation, the liquid cultures were centrifuged (2500 rpm for 10 min) and washed with phosphoric buffer (PBS, AppliChem, Darmstadt, Germany) three times and resuspended in fresh MHB II for inoculums appropriate for the performed assays.
# (§2) Bacterial suspensions were added to 96-well plates (Kartell, Noviglio, Italy) at initial inoculums of ca. 5 × 10^8 CFU/mL and incubated under aerobic conditions with shaking (120 rpm) at 37 °C for 24 h. […] After exposure, the wells were washed three times with PBS and a solution of resazurin (Sigma Aldrich, St. Louis, MO, USA) in MHB II (0.01%) was added. This cell viability reagent is metabolized by bacterial dehydrogenases upon contact with living cells. As a result, the blue dye is reduced to a pink resorufin. After 1.5 h of incubation, the absorbance was measured at 570 and 600 nm using a microplate reader (Thermo Fisher Scientific, Waltham, MA, USA). […] The metabolic activity of bacteria in the samples was measured according to the following formula:
# (§3) Metabolic activity (%) = (ΔAbs of sample − ΔAbs of negative control)/(ΔAbs of positive control − ΔAbs of negative control);
# (§4) ΔAbs = absorbance at 570 nm − absorbance at 600 nm;
# (§5) The presented results are the means of nine results obtained on three different days.
# [2] = test system: Enterococcus faecalis ATCC 29212 biofilm; assay: as above; details: polystyrene plate, 24 h exposure in MHB II
# Method: as §1, §2, §3, §4, §5
# [3] = test system: Escherichia coli ATCC 25922 biofilm; assay: as above; details: polystyrene plate, 24 h exposure in MHB II
# Method: as §1, §2, §3, §4, §5
# [4] = test system: Pseudomonas aeruginosa ATCC 9027 biofilm; assay: as above; details: lowest concentration reducing metabolic activity by at least 50 ± 5%; polystyrene plate, 24 h exposure in MHB II, resazurin
# Method: as §1, §2, §3, §4, §5
# [5] = test system: Escherichia coli ATCC 25922 biofilm on CLs; assay: Activity of lipopeptide and CL liquids against biofilms formed on contact lenses; details: EC biofilm on CLs, lipopeptide in PBS, 24 h, resazurin
# Method: (§6) Bacterial strains were obtained from the Polish Collection of Microorganisms (Polish Academy of Science, Wroclaw, Poland). Three Gram-positive and two Gram-negative strains linked with CL-related infections were chosen for the study (Staphylococus aureus ATCC 6538, Staphylococcus epidermidis ATCC 14990, Pseudomonas aeruginosa ATCC 9027, Escherichia coli ATCC 25922, and Enterococcus faecalis ATCC 29212). The bacteria were cultured in a Mueller Hinton Broth II (MHB, Biocorp, Warsaw, Poland) overnight, under aerobic conditions at 37 °C. After incubation, the liquid cultures were centrifuged (2500 rpm for 10 min) and washed with phosphoric buffer (PBS, AppliChem, Darmstadt, Germany) three times and resuspended in fresh MHB II for inoculums appropriate for the performed assays.
# (§7) Bacterial biofilms were cultured on commercially available CLs (1-Day Acuvue Moist, containing Etafilcon A, obtained from Johnson and Johnson Vision Care, Jacksonsville, FL, USA). The CLs were placed in polystyrene 24-well plates (Orange Scientific, Braine-l’Alleud, Belgium) in bacterial suspensions in MHB II at initial inoculums of ca. 5 × 10^8 CFU/mL. After 24 h of incubation (aerobic conditions, 120 rpm shaking, 37 °C), all of the CLs were rinsed three times with PBS. […] After incubation, resazurin was added (final concentration per sample = 0.01%) and absorbance was measured as in the assays 4.3 and 4.4. Positive controls contained CLs with bacterial biofilms placed in pure PBS, while sterile CLs incubated in MHB II replaced with PBS served as negative controls. The experiments were performed in triplicate on three different days.
# [6] = test system: Staphylococcus epidermidis ATCC 14990 biofilm on CLs; assay: as above; details: SE biofilm on CLs, lipopeptide in PBS, 24 h, resazurin
# Method: as §6, §7
# [7] = test system: Pseudomonas aeruginosa ATCC 9027 biofilm on CLs; assay: as above; details: PA biofilm on CLs, lipopeptide in PBS, 24 h, resazurin
# Method: as §6, §7
# [8] = test system: Enterococcus faecalis ATCC 29212 biofilm on CLs; assay: as above; details: EF biofilm on CLs, lipopeptide in PBS, 24 h, resazurin
# Method: as §6, §7
# [9] = test system: Escherichia coli ATCC 25922 biofilm on CLs; assay: Lipopeptide, lens liquids and combinations against biofilms on CLs after withdrawal of the antimicrobial solution; details: EC biofilm on CLs, all tested concentrations, after withdrawal and 24 h in MHB II
# Method: as §6, §7
# (§8) The assay was also performed for the samples where biofilms on CLs were exposed to pure CL solutions. Positive controls (100%) were biofilms on CLs in PBS, while negative controls were CLs previously incubated in pure MHB II replaced for the exposure time with PBS. After 24 h of exposure (aerobic conditions, 120 rpm shaking, 37 °C) all the solutions were removed, replaced with MHB II and the samples were incubated for another 24 h. Resazurin was then added in order to visualize the results. The results were read, calculated, and presented as in the previously-described sections.
# [10] = test system: Staphylococcus epidermidis ATCC 14990 biofilm on CLs; assay: as above; details: SE biofilm on CLs, lipopeptide in PBS, after withdrawal and 24 h in MHB II
# Method: as §6, §7, §8
# [11] = test system: Pseudomonas aeruginosa ATCC 9027 biofilm on CLs; assay: as above; details: PA biofilm on CLs, all tested concentrations, after withdrawal and 24 h in MHB II
# Method: as §6, §7, §8
# [12] = test system: Enterococcus faecalis ATCC 29212 biofilm on CLs; assay: as above; details: EF biofilm on CLs, after withdrawal and 24 h in MHB II
# Method: as §6, §7, §8
# [13] = lowest concentration reducing metabolic activity by at least 50 ± 5%
# [14] = lowest concentration reducing metabolic activity by at least 90 ± 5%, mean of nine results
substance,measurement,setting,value
(C10)2-KKKK-NH2 [Lipopeptide],MBEC 50,[1]; [13],16 mg/L
same,MBEC 90,[1]; [14],16 mg/L
same,MBEC 50,[2]; [13],16 mg/L
same,MBEC 90,[2]; [14],32 mg/L
same,MBEC 50,[3]; [13],64 mg/L
same,MBEC 90,[3]; [14],64 mg/L
same,MBEC 50,[4],64 mg/L
same,concentration reducing metabolic activity by more than 90%,[5],32 mg/L
same,concentration reducing metabolic activity of bacteria by at least 90%,[6],8 mg/L
same,concentration reducing metabolic activity by more than 90%,[7],32 mg/L
same,concentration reducing metabolic activity of bacteria by at least 90%,[8],8 mg/L
same,regrowth of bacterial population after removal,[9],ca. 50%
same,concentration permanently removing biofilm from CLs,[10],16 mg/L
same,regrowth of bacterial population after removal,[11],fully restored
same,effect on biofilm after removal of the agent,[12],promoted bacterial growth
